Assay results as given in patent publication US20170112858A1, “Extended Release Aspirin” (New Haven Pharmaceuticals, Inc., priority 2015, published 2017).

Legend:
Format in all cases: in vivo, human
endothelial function = test: Reactive hyperemia index (ENDOPAT pulsatile arterial tonometry)
Method: Endothelial function was assessed using the ENDOPAT system ([…] Medical, Israel), a pulsatile arterial tonometry-based diagnostic device, at Visit 2, Visit 3, Visit 5, and Visit 6 predose. The reactive hyperemia index (“RHI”), a measure of endothelial function, and the augmentation index (“AI”), a measure of arterial stiffness, were determined. Endothelial dysfunction is defined as RHI <1.67. Normal arterial stiffness is defined as an AI -30% to -10%, increased arterial stiffness as an AI >-10% to 10%, and abnormal arterial stiffness as an AI >10%. The RHI measures vessel pliability which is a surrogate for nitric oxide production. The production of nitric oxide inhibits platelet aggregation. Thus, determining nitric oxide production following Durlaza® dosing is important to understanding its affect on platelet inhibition.

[1] = system: 2, 3-dinor-6-keto-PGF1α (prostacyclin); test: Excretion of prostacyclin metabolite, urine GC/MS (Example 3)
Method: (§1) Subjects of Group 1 were randomly administered a placebo, 81 mg IR ASA and 162.5 mg IR ASA. Subjects of Group 2 were randomly administered a placebo, 81 mg ER ASA and 162.5 mg ER ASA (Durlaza®). Each subject was prohibited from taking any aspirin for two weeks prior to being administered the randomly chosen drug daily for 1 week followed by a urine collection 24 hours after dosing. This protocol was repeated two additional times. For each urine collection TxB2 and 2, 3-dinor-6-keto-PGF1α (“prostacyclin”) levels were measured using gas chromatography-mass spectrometry (“GC/MS”). Statistical analysis was done using Wilcoxon rank sum test for continuous variables and the Pearson test for categorical variables.

TxB2 = test: Excretion of thromboxane metabolite, urine GC/MS (Example 3)
Method: as §1

[2] = Single dose ASA pharmacokinetics in healthy adults (serial blood samples)
Method: (§2) Healthy adults were randomized to receive single doses of extended release ASA (“ER ASA”) at a dosage of 20 mg, 40 mg, 81 mg, 162.5 mg ER ASA (Durlaza®; New Haven Pharmaceuticals, Inc., North Haven, Conn.), or 325 mg, or immediate release ASA (“IR ASA”; aspirin powder USP; Letco Medical, Decatur, Ala.) at a dosage of 5 mg, 10 mg, 20 mg, 40 mg or 81 mg. […] For pharmacodynamic assessments, serum 11-dehydro-thromboxane (“TxB2”, a stable metabolite of thromboxane A2) levels were assessed using a validated enzyme immunoassay kit in serial blood samples collected 1 hour before dosing and at 0.5, 1, 2, 4, 8, 16, and 24 hours after drug administration.

platelet aggregation = test: Light transmittance aggregometry (LTA), AA-, collagen-, ADP-induced, in type II diabetes subjects with vascular disease or CVD risk factors; conditions: trough
Method: High platelet reactivity has previously been implicated in incomplete inhibition during therapy with immediate release low-dose aspirin in patients with type II diabetes. The main study consisted of a run-in phase where subjects were administered 81 mg, everyday (“QD”), of immediate release acetylsalicylic acid (“IR ASA”) for 7-28 days. […] For this study the trough level data are from the following timepoints: (1) for 81 mg—the data at Visit 2; […]

[3] = system: High Sensitive C-Reactive Protein (hs-CRP); test: High Sensitive C-Reactive Protein test (Immulite 2000 Xpi)
Method: Subjects were also measured for high sensitive C-reactive protein (“hs-CRP”) levels at Visit 1, Visit 2, Visit 3 pre-dose, Visit 3 at 24 hours, Visit 6 pre-dose and Visit 6 at 24 hours.
High Sensitive C-Reactive Protein (“hs-CRP”) was measured using a Seimens Immulite 2000® Xpi analyzer (Immulite 2000 is a registered trademark of Siemens Healthcare Diagnostic, Inc.), prior to 162.5 mg ER ASA (Durlaza®) dosing at Visit 2 pre-dose, at Visit 3 pre-dose and Visit 3 at 24-hr post-dose for the 162.5 mg ER ASA (Durlaza®) dose, and at Visit 6 pre-dose and Visit 6 at 24-hr post-dose for the 325 mg ER ASA dose.

serum TxB2 production = test: Single dose inhibition of serum TxB2 production in healthy adults (enzyme immunoassay); conditions: highest doses: ER ASA 81, 162.5, 325 mg; IR ASA 40, 81 mg
Method: as §2

[4] = Visit 2, 81 mg IR QD (vs. Visit 3 pre dose)
[5] = Visit 2, 81 mg IR QD (vs. Visit 6 pre dose)

CC(=O)Oc1ccccc1C(=O)O [IR ASA, acetylsalicylic acid]
subjects with RHI < 1.67 (n, %) (endothelial function; HPT Group, Visit 5, 81 mg IR ASA QD): 4 (44) n, % | subjects with RHI < 1.67 (n, %) (endothelial function; Visit 2, 81 mg IR ASA QD): 11 (27.5) n, % | Bradykinin-stimulated prostacyclin levels, over placebo ([1]; 81 mg daily): significantly reduced | Bradykinin-stimulated prostacyclin levels, over placebo ([1]; 162.5 mg daily): significantly reduced | Bradykinin-stimulated TxB2 levels 4 hours post-dosing, over placebo (TxB2; 81 mg daily): significantly reduced | Basal urinary TxB2 levels 24 hours post-dosing, over placebo (TxB2; 81 mg daily for 1 week): significantly reduced | Bradykinin-stimulated TxB2 levels 4 hours post-dosing, over placebo (TxB2; 162.5 mg daily): significantly reduced | Basal urinary TxB2 levels 24 hours post-dosing, over placebo (TxB2; 162.5 mg daily for 1 week): significantly reduced | dose dependence of the effect on TxB2 synthesis (TxB2; 81 vs 162.5 mg): not seen | time required to reach the maximum concentration of ASA ([2]; all doses, single dose): 1 to 2 h | AUClast of ASA ([2]; single dose 40 mg): 384 ng·h/mL | AUClast of ASA ([2]; single dose 81 mg): 865 ng·h/mL | LTA (%) 2 mM AA (Final), first line so headed (platelet aggregation; [4]): 5 ± 12% | LTA (%) 2 mM AA (Final), second line so headed (platelet aggregation; [4]): 6 ± 13% | LTA (%) 2 mM AA (Final), first line so headed (platelet aggregation; [5]): 3 ± 2% | LTA (%) 2 mM AA (Final), second line so headed (platelet aggregation; [5]): 3 ± 2% | subjects with hs-CRP >3 mg/L (n, %) ([3]; V2 pre-dose, 81 mg IR ASA): 23 (57) n, % | patients meeting the criteria for elevated CRP ([3]; during 81 mg IR ASA therapy, total study population): 47% | single dose inhibition of TxB2 production (serum TxB2 production): maintained during a 24-hour period
